Experimental data as given in patent US10881110B2, “Herbicidal compositions comprising isoxazolo[5,4-b]pyridines” (BASF SE, priority 2014, dated 2021).
“And” between values parts separate entries of the source, which are not always exact repeats. Equal entries are not always repeated. Where two headings read alike, the source gives them in different places.

What was measured:
[1] = tested on: GALAP; assay: greenhouse post-emergence herbicidal test; type: in vivo, Galium aparine; design: key to herbicidal activity against GALAP found: rating on a scale from 0 to 100; conditions: post emergence
Outline: (§1)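 Herbicidal activity scored on a 0 (no damage) to 100 (plants destroyed) scale, usually 20 days after water-based spraying of 1–15 cm plants grown in loamy sand at 10-25 °C or 20-35 °C depending on species. Components were applied from 10% emulsion concentrates; Colby's E=X+Y−(X·Y/100) gives the additive expectation.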

[2] = tested on: POLCO; assay: greenhouse post-emergence herbicidal test; type: in vivo, Polygonum convolvulus; design: key to herbicidal activity against POLCO found: rating on a scale from 0 to 100; conditions: post emergence
Outline: as §1

[3] = a.i. g/ha: I.1 62.5, B.67 62.5, 20 days after treatment
[4] = application rate a.i.: I.1 62.5 g/ha, B.107 (topramezone) 6 g/ha, alone or as mixture (composition 1.107)
[5] = applied alone at 31.25 g/ha a.i.
[6] = applied alone at 62.5 g/ha a.i.

**Q.** `O=C(O)c1cc(C2CC2)nc2onc(C3CC3)c12` [I.1] was tested. Which “herbicidal activity against GALAP found” value ([1]; a.i. g/ha: I.1 62.5, B.191 225, 20 days after treatment) did it give?
**A.** 65%

**Q.** What about the “herbicidal activity against GALAP found” value [1, 3] of the same compound?
**A.** 10%

**Q.** What about the “herbicidal activity against GALAP found” value ([1]; a.i. g/ha: I.1 62.5, B.69 25, 20 days after treatment) of the same compound?
**A.** 65%

**Q.** And the “herbicidal activity against GALAP found” value ([1]; a.i. g/ha: I.1 62.5, B.77 75, 20 days after treatment)?
**A.** 10%

**Q.** And the “herbicidal activity against GALAP found” value ([1]; a.i. g/ha: I.1 62.5, B.82 31.25, 20 days after treatment)?
**A.** 65%

**Q.** What about the “herbicidal activity against GALAP found” value ([1]; application rate a.i.: I.1 31.25 g/ha, B.84 (paraquat-dichloride) 17.5 g/ha, alone or as mixture (composition 1.84)) of the same compound?
**A.** 65

**Q.** And the “herbicidal activity against GALAP found” value [1, 4]?
**A.** 10

**Q.** What about the “herbicidal activity against GALAP found” value ([1]; application rate a.i.: I.1 125 g/ha, B.113 (glyphosate) 33.75 g/ha, alone or as mixture (composition 1.113)) of the same compound?
**A.** 80

**Q.** And the “herbicidal activity against GALAP found” value ([1]; application rate a.i.: I.1 125 g/ha, B.113 (glyphosate) 135 g/ha, alone or as mixture (composition 1.113))?
**A.** 80

**Q.** And the “herbicidal activity against GALAP found” value [1, 5]?
**A.** 50

**Q.** What about the “herbicidal activity against GALAP found” value [1, 6] of the same compound?
**A.** 90

**Q.** What about the “herbicidal activity against GALAP found” value ([1]; applied alone at 125 g/ha a.i.) of the same compound?
**A.** 65 and 95 and 90

**Q.** And the pest or weed control at 31.25 g/ha ([2]; Fallopia convolvulus, post-emergence, 480 h, I.1 alone 31.25 g/ha a.i., read-out: herbicidal activity against POLCO found)?
**A.** 0%

**Q.** What about the pest or weed control at 62.5 g/ha ([2]; Fallopia convolvulus, post-emergence, 480 h, I.1 alone 62.5 g/ha a.i., read-out: herbicidal activity against POLCO found) of the same compound?
**A.** 65%

**Q.** What about the pest or weed control at 125 g/ha ([2]; Fallopia convolvulus, post-emergence, 480 h, I.1 alone 125 g/ha a.i., read-out: herbicidal activity against POLCO found) of the same compound?
**A.** 65%

**Q.** What about the pest or weed control at 31.25 g/ha ([2]; Fallopia convolvulus, post-emergence, 480 h, I.1 31.25 g/ha a.i., read-out: herbicidal activity against POLCO found) of the same compound?
**A.** 20%

**Q.** What about the pest or weed control at 31.25 g/ha ([2]; Fallopia convolvulus, post-emergence, 480 h, single active, 31.25 g/ha a.i., read-out: herbicidal activity against POLCO found) of the same compound?
**A.** 20%

**Q.** And the “herbicidal activity against POLCO found” value ([2]; 6 days after treatment, g/ha a.i.: I.1 31.25, B.96 70, mixture 31.25+70)?
**A.** 35

**Q.** What about the “herbicidal activity against POLCO found” value ([2]; 6 days after treatment, g/ha a.i.: I.1 31.25, B.96 140, mixture 31.25+140) of the same compound?
**A.** 35

**Q.** And the “herbicidal activity against POLCO found” value ([2]; 6 days after treatment, g/ha a.i.: I.1 31.25, naptalam 50, mixture 31.25+50)?
**A.** 35

**Q.** What about the “herbicidal activity against POLCO found” value ([2]; 6 days after treatment, g/ha a.i.: I.1 62.5, B.96 70, mixture 62.5+70) of the same compound?
**A.** 70

**Q.** What about the “herbicidal activity against POLCO found” value ([2]; 6 days after treatment, g/ha a.i.: I.1 62.5, B.96 140, mixture 62.5+140) of the same compound?
**A.** 70

**Q.** And the “herbicidal activity against POLCO found” value ([2]; 6 days after treatment, g/ha a.i.: I.1 62.5, naptalam 50, mixture 62.5+50)?
**A.** 70

**Q.** And the “herbicidal activity against POLCO found” value ([2]; I.1 15.6 g/ha, B.103 7.5 g/ha a.i.)?
**A.** 10

**Q.** What about the “herbicidal activity against POLCO found” value ([2]; I.1 15.62 g/ha, B.167 62.5 g/ha a.i.) of the same compound?
**A.** 10

**Q.** What about the “herbicidal activity against POLCO found” value ([2]; I.1 15.62 g/ha, B.167 125 g/ha a.i.) of the same compound?
**A.** 10

**Q.** And the “herbicidal activity against POLCO found” value ([2]; I.1 15.62 g/ha, B.89 12.5 g/ha a.i.)?
**A.** 0

**Q.** And the “herbicidal activity against POLCO found” value ([2]; I.1 62.5 g/ha, B.103 7.5 g/ha a.i.)?
**A.** 40

**Q.** And the “herbicidal activity against POLCO found” value ([2]; I.1 62.5 g/ha, B.103 15 g/ha a.i.)?
**A.** 40

**Q.** What about the “herbicidal activity against POLCO found” value ([2]; I.1 62.5 g/ha, B.167 62.5 g/ha a.i.) of the same compound?
**A.** 40

**Q.** What about the “herbicidal activity against POLCO found” value ([2]; I.1 62.5 g/ha, B.167 125 g/ha a.i.) of the same compound?
**A.** 40

**Q.** What about the “herbicidal activity against POLCO found” value ([2]; a.i. g/ha: I.1 15.6, B.190 62.5, 20 days after treatment) of the same compound?
**A.** 30%

**Q.** And the “herbicidal activity against POLCO found” value ([2]; a.i. g/ha: I.1 15.6, B.67 125, 20 days after treatment)?
**A.** 0%

**Q.** And the “herbicidal activity against POLCO found” value ([2]; a.i. g/ha: I.1 20.8, B.67 62.5, 20 days after treatment)?
**A.** 30%

**Q.** What about the “herbicidal activity against POLCO found” value ([2]; a.i. g/ha: I.1 20.8, B.79 25, 20 days after treatment) of the same compound?
**A.** 50%

**Q.** What about the “herbicidal activity against POLCO found” value ([2]; a.i. g/ha: I.1 31.25, B.190 62.5, 20 days after treatment) of the same compound?
**A.** 50%

**Q.** And the “herbicidal activity against POLCO found” value ([2]; a.i. g/ha: I.1 31.25, B.67 125, 20 days after treatment)?
**A.** 0%

**Q.** And the “herbicidal activity against POLCO found” value ([2]; a.i. g/ha: I.1 31.25, bentazon Na 125, 20 days after treatment)?
**A.** 50%

**Q.** And the “herbicidal activity against POLCO found” value [2, 3]?
**A.** 65%

**Q.** What about the “herbicidal activity against POLCO found” value ([2]; a.i. g/ha: I.1 62.5, B.79 25, 20 days after treatment) of the same compound?
**A.** 75%

**Q.** What about the “herbicidal activity against POLCO found” value ([2]; application rate a.i.: I.1 31.25 g/ha, B.100 (isoxaflutole) 12.5 g/ha, alone or as mixture (composition 1.100)) of the same compound?
**A.** 70

**Q.** And the “herbicidal activity against POLCO found” value ([2]; application rate a.i.: I.1 31.25 g/ha, B.139 (pyroxasulfone) 12.5 g/ha, alone or as mixture (composition 1.139))?
**A.** 65

**Q.** What about the “herbicidal activity against POLCO found” value ([2]; application rate a.i.: I.1 31.25 g/ha, B.40 (imazethapyr) 7.5 g/ha, alone or as mixture (composition 1.40)) of the same compound?
**A.** 20

**Q.** What about the “herbicidal activity against POLCO found” value [2, 4] of the same compound?
**A.** 75

**Q.** And the “herbicidal activity against POLCO found” value ([2]; application rate a.i.: I.1 62.5 g/ha, B.84 (paraquat-dichloride) 17.5 g/ha, alone or as mixture (composition 1.84))?
**A.** 90

**Q.** What about the “herbicidal activity against POLCO found” value [2, 5] of the same compound?
**A.** 65

**Q.** What about the “herbicidal activity against POLCO found” value [2, 6] of the same compound?
**A.** 90

**Q.** And the “herbicidal activity against POLCO found” value ([2]; applied alone at 125 g/ha a.i.)?
**A.** 85

**Q.** What about the “herbicidal activity against POLCO found” value ([2]; g/ha a.i.: I.1 31.25, B.63 1, mixture 31.25+1) of the same compound?
**A.** 30

**Q.** What about the “herbicidal activity against POLCO found” value ([2]; g/ha a.i.: I.1 125, B.63 0.5, mixture 125+0.5) of the same compound?
**A.** 80

**Q.** What about the “herbicidal activity against POLCO found” value ([2]; g/ha a.i.: I.1 125, B.63 1, mixture 125+1) of the same compound?
**A.** 80
